# Assay results published in publication PMC9944328 (Nature Communications, 2023).
# Entries after “also recorded” stand apart in the source; their conditions may differ. Read-outs that look alike come from different tables or passages of the source.
# Experiments:
# SSTR3 mutants [1] = biological target: SSTR3 mutants (Homo sapiens, UniProt P32745); experiment: SSTRs Gi-mediated cAMP inhibition, GloSensor, HEK293 (SSTR3 mutants); type: cell-based; set-up: Bottom / Top / Span / Top (best-fit): unit not given here
# Method: (§1) The levels of the intracellular 3′, 5′-cyclic AMP (cAMP) were measured by the GloSensor cAMP assay (Promega) as described in the previous studies[28],[41] which has been widely used. The human full-length SSTRs and mutants were cloned into the pcDNA3.1+ vector with a HA signal sequence followed by a Flag tag at the N-terminus. […] Cells were then co-transfected with SSTR wild-type or mutants and GloSensor plasmids. After 24 h of transfection, the cells were dissociated with TrypLE™ Express Enzyme (1X) (Thermo Fisher Scientific) and collected by centrifugation at 500 × g for 5 min. Then the collected cells were suspended in Hank’s balanced salt solution [HBSS (Thermo Fisher Scientific)] supplemented with […] potassium salt solution (YEASEN), and then the suspension cells were seeded into 96-well plates with 90 μl/well. After incubating at room temperature for 40 min, 5 μM forskolin and ligands diluted in HBSS were added to each well and the plates were incubated at room temperature for 15 min. […] signals were measured using the Synergy H1 microplate reader (BioTek) and the data presented are means of at least three independent experiments.
# SSTR3 mutants [2] = biological target: T1, SSTR3 mutants (Homo sapiens, UniProt P32745, H192T); experiment: as above; type: cell-based; set-up: Bottom / Top / Span / Top (best-fit): unit not given here
# T1 construct: The human full-length SSTRs and mutants were cloned into the pcDNA3.1+ vector; expressed in transfected cells; host or cells: HEK293 (ATCC, CRL-1573)
# Method: as §1
# SSTR2 [3] = biological target: SSTR2 (Homo sapiens, UniProt P30874); experiment: Bystander BRET endosomal trafficking (β-arrestin 1-Nluc, FYVE-mVenus), HEK293 (SSTR2 wild-type); type: cell-based; set-up: The human full-length SSTRs and mutants were cloned into the pcDNA3.1+ vector; expressed in transfected cells; host or cells: HEK293; details: for Bottom / LogEC50 / Span / Top: best-fit value;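 on all read-outs here: HEK293 cells coexpressing Nluc-tagged β-arrestin 1 and mVenus-fused FYVE endosomal marker, bystander BRET ratio read after ligand addition, coelenterazine h substrate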
# Method: (§2) Wild-type or mutant SSTR2, β-arrestin 1-Nluc and FYVE-mVenus were co-transfected in HEK293 cells at a ratio of 1:0.5:4 on six-well plates. The next day, the transfected cells were plated on white 96-well and incubated overnight, and then cells were incubated with 90 µL HBSS containing 20 mM HEPES and coelenterazine h (5 µM) at room temperature for 40 min. After incubation, ligand was added and the signal was measured using the Synergy H1 microplate reader (BioTek) to determine a BRET ratio.
# SSTR2 mutants [4] = biological target: SSTR2 mutants (Homo sapiens, UniProt P30874, Y312A)
# Method: as §2
# SSTR2 mutants [5] = biological target: SSTR2 mutants (Homo sapiens, UniProt P30874, R140A)
# Method: as §2
# SSTR2 [6] = experiment: β-arrestin recruitment with co-transfection of GRK2; type: cell-based, human; details: N276(6.55)A and F294(7.35)A with GRK2 co-transfection
# Method: In addition, we measured the function of the residues located in the core region and the common ligand binding pocket.
# Human full-length β-arrestin 1 was cloned into pcDNA3.1+ vector with the large fragment (LgBiT) of the NanoBiT system and a 15-amino acid flexible linker ([sequence]) at the N-terminus. Human full-length SSTR wild-type and mutant vectors were C-terminally fused with a 15-amino acid flexible linker and the small fragment (SmBiT). HEK293 cells were seeded into six-well microplates at a density of 1.0 × 10^6 cells/well and cultured for 24 h at 37 °C with 5% CO2. After that, cells were co-transfected with pcDNA3.1+ vectors encoding SSTR wild-type or mutants and human β-arrestin 1. After transfecting for 24 h, the transfected cells were suspended and seeded into white 96-well plates, and then cultured at 37 °C overnight. After that the medium in each well was exchanged for 90 μl of 0.01% bovine serum albumin containing 20 μl of 50 μM coelenterazine h (Carbosynth) diluted in the HBSS assay buffer and incubated for 40 min at room temperature. Then, ligands diluted in the assay buffer was added to each well and the luminescence intensity was measured using the Synergy H1 microplate reader and detected at room temperature in a time period. All data presented are means of at least three independent experiments.
# SSTR2 [7] = experiment: Bias factor (β value), Gi cAMP inhibition versus β-arrestin recruitment; type: cell-based, human
# Method: as §1
# The NanoBiT β-arrestin 1 recruitment assays were carried out according to the method described previously. […] Human full-length SSTR wild-type and mutant vectors were C-terminally fused with a 15-amino acid flexible linker and the small fragment (SmBiT). HEK293 cells were seeded into six-well microplates at a density of 1.0 × 10^6 cells/well and cultured for 24 h at 37 °C with 5% CO2. After that, cells were co-transfected with pcDNA3.1+ vectors encoding SSTR wild-type or mutants and human β-arrestin 1. After transfecting for 24 h, the transfected cells were suspended and seeded into white 96-well plates, and then cultured at 37 °C overnight. After that the medium in each well was exchanged for 90 μl of 0.01% bovine serum albumin containing 20 μl of 50 μM coelenterazine h (Carbosynth) diluted in the HBSS assay buffer and incubated for 40 min at room temperature. Then, ligands diluted in the assay buffer was added to each well and the luminescence intensity was measured using the Synergy H1 microplate reader and detected at room temperature in a time period. All data presented are means of at least three independent experiments.
# All data in this study were analyzed using GraphPad Prism 7 and were expressed as the error bars and the standard error of means ± SEM from at least n = 3 biologically independent experiments performed in triplicate. All curve data were normalized to the maximal wild-type and processed using a sigmoidal dose response curve in GraphPad Prism 7. Statistical differences between conditions were determined by one-way of variance ANOVA with Dunnett’s test or T-test.
# [8] = WT-1 (F265A, I284A, K291A blocks)
# [9] = WT-2 (F265A, I284A, K291A blocks)
# [10] = WT-2 of N276A block = WT-3 of F294A block
# [11] = WT-3 (F265A, I284A, K291A blocks)
# [12] = WT-3 of N276A block = WT-2 of F294A block
# SSTR2 (Homo sapiens, UniProt P30874), sequence (P30874 whole entry, the tested form may be a part): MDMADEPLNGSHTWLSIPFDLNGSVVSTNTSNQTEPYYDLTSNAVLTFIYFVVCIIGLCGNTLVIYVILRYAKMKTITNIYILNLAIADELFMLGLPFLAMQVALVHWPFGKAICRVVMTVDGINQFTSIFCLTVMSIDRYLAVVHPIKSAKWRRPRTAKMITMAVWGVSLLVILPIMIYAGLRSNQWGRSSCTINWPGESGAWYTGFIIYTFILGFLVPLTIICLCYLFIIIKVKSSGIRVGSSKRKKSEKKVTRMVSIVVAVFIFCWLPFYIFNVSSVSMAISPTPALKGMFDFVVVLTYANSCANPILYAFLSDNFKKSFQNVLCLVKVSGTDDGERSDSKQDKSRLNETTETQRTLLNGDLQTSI
# SSTR3 mutants (Homo sapiens, UniProt P32745), sequence (P32745 whole entry N104V): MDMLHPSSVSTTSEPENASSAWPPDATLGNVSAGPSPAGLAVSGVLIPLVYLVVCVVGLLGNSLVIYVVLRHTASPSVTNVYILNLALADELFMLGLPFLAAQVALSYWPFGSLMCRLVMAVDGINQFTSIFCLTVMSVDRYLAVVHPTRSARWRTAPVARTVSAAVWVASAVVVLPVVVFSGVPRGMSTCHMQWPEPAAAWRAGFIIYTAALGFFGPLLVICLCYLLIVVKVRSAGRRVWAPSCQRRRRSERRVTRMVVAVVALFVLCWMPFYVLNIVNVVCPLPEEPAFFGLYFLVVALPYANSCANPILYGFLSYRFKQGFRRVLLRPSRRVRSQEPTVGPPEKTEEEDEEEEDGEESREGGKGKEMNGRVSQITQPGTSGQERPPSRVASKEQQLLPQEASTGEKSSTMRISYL
# T1 sequence (P32745 whole entry H192T): as the sequence (P32745 whole entry N104V) above, with V104N, H192T counted along it
# SSTR2 mutants (Homo sapiens, UniProt P30874, Y312A), sequence (P30874 whole entry Y312A): as the sequence (P30874 whole entry, the tested form may be a part) above, with Y312A counted along it
# SSTR2 mutants (Homo sapiens, UniProt P30874, R140A), sequence (P30874 whole entry R140A): as the sequence (P30874 whole entry, the tested form may be a part) above, with R140A counted along it
structure (smiles),measurement,setting,value
N#Cc1cccc(-c2ccc3ncc(-c4cc(F)cc(F)c4)c(N4CCC(N)CC4)c3c2)c1O [paltusotine],Emax,SSTR3 mutants [1]; HEK293,90.7 ± 7.93%
same,Fold of WT,"SSTR3 mutants [1]; Suppl. Tables 4/5, SSTR3 N101(2.64)V",1.31
same,EC50,"SSTR3 mutants [1]; Suppl. Tables 4/5, SSTR3 N101(2.64)V, n=3",83.7 ± 1.31 nM
same,Bottom,"SSTR3 mutants [1]; best-fit, SSTR3 N101V-1",2.574
same,EC50,"SSTR3 mutants [1]; best-fit, SSTR3 N101V-1",85.3 nM
same,LogEC50,"SSTR3 mutants [1]; best-fit, SSTR3 N101V-1",-7.069
same,Span,"SSTR3 mutants [1]; best-fit, SSTR3 N101V-1",181.5
same,Bottom,"SSTR3 mutants [1]; best-fit, SSTR3 N101V-2",5.233
same,LogEC50,"SSTR3 mutants [1]; best-fit, SSTR3 N101V-2",-7.01
same,Span,"SSTR3 mutants [1]; best-fit, SSTR3 N101V-2",137.4
same,Bottom,"SSTR3 mutants [1]; best-fit, SSTR3 N101V-3",5.233
same,LogEC50,"SSTR3 mutants [1]; best-fit, SSTR3 N101V-3",-7.01
same,Span,"SSTR3 mutants [1]; best-fit, SSTR3 N101V-3",137.4
same,EC50,SSTR3 mutants [2],58.1 ± 1.43 nM
same,Emax,SSTR3 mutants [2]; HEK293,108 ± 8.99%
same,Fold of WT,"SSTR3 mutants [2]; Suppl. Tables 4/5, SSTR3 H192(45.51)T",0.91
same,Bottom,"SSTR3 mutants [2]; best-fit, SSTR3 H192T-1",14.85
same,LogEC50,"SSTR3 mutants [2]; best-fit, SSTR3 H192T-1",-7.173
same,Span,"SSTR3 mutants [2]; best-fit, SSTR3 H192T-1",475
same,Top,"SSTR3 mutants [2]; best-fit, SSTR3 H192T-1",489.8
same,EC50,"SSTR3 mutants [2]; best-fit, SSTR3 H192T-1, read-out: EC50",67.2 nM
same,Bottom,"SSTR3 mutants [2]; best-fit, SSTR3 H192T-2",37.09
same,LogEC50,"SSTR3 mutants [2]; best-fit, SSTR3 H192T-2",-7.251
same,Span,"SSTR3 mutants [2]; best-fit, SSTR3 H192T-2",569.9
same,Top,"SSTR3 mutants [2]; best-fit, SSTR3 H192T-2",607
same,EC50,"SSTR3 mutants [2]; best-fit, SSTR3 H192T-2, read-out: EC50",56 nM
same,Fold of WT,"SSTR2 [3]; Bystander BRET EC50, SSTR2-WT",1.00
same,EC50,"SSTR2 [3]; EC50, Bystander BRET, SSTR2-WT, n=6",122 ± 1.31 nM
same,EC50,"SSTR2 [3]; EC50, best-fit value, WT-1 (F265A, I284A, K291A blocks)",40.4 nM
same,EC50,"SSTR2 [3]; EC50, best-fit value, WT-1 (N276A, F294A blocks)",250 nM
same,EC50,"SSTR2 [3]; EC50, best-fit value, WT-2 (F265A, I284A, K291A blocks)",131 nM
same,EC50,"SSTR2 [3]; EC50, best-fit value, WT-2 of N276A block = WT-3 of F294A block",219 nM
same,EC50,"SSTR2 [3]; EC50, best-fit value, WT-3 (F265A, I284A, K291A blocks)",58.5 nM
same,EC50,"SSTR2 [3]; EC50, best-fit value, WT-3 of N276A block = WT-2 of F294A block",202 nM
same,Emax,SSTR2 [3]; HEK293,100%
same,Bottom (best-fit),SSTR2 [3]; WT-1 (run 1),1.413
same,LogEC50 (best-fit),SSTR2 [3]; WT-1 (run 1),-7.394
same,Span (best-fit),SSTR2 [3]; WT-1 (run 1),100
same,Top (best-fit),SSTR2 [3]; WT-1 (run 1),101.4
same,Bottom (best-fit),SSTR2 [3]; WT-2 (run 2),-7.096
same,LogEC50 (best-fit),SSTR2 [3]; WT-2 (run 2),-6.882
same,Span (best-fit),SSTR2 [3]; WT-2 (run 2),113.5
same,Top (best-fit),SSTR2 [3]; WT-2 (run 2),106.4
same,Bottom (best-fit),SSTR2 [3]; WT-3 (run 3),-1.006
same,LogEC50 (best-fit),SSTR2 [3]; WT-3 (run 3),-7.233
same,Span (best-fit),SSTR2 [3]; WT-3 (run 3),104.3
same,Top (best-fit),SSTR2 [3]; WT-3 (run 3),103.3
same,Bottom,SSTR2 [3]; [8],1.413
same,LogEC50,SSTR2 [3]; [8],-7.394
same,Span,SSTR2 [3]; [8],100
same,Top,SSTR2 [3]; [8],101.4
same,Bottom,"SSTR2 [3]; WT-1 (N276A, F294A blocks)",-1.996
same,LogEC50,"SSTR2 [3]; WT-1 (N276A, F294A blocks)",-6.603
same,Span,"SSTR2 [3]; WT-1 (N276A, F294A blocks)",108.2
same,Top,"SSTR2 [3]; WT-1 (N276A, F294A blocks)",106.2
same,Bottom,SSTR2 [3]; [9],-7.096
same,LogEC50,SSTR2 [3]; [9],-6.882
same,Span,SSTR2 [3]; [9],113.5
same,Top,SSTR2 [3]; [9],106.4
same,Bottom,SSTR2 [3]; [10],-1.129
same,LogEC50,SSTR2 [3]; [10],-6.66
same,Span,SSTR2 [3]; [10],107.2
same,Top,SSTR2 [3]; [10],106.1
same,Bottom,SSTR2 [3]; [11],-1.006
same,LogEC50,SSTR2 [3]; [11],-7.233
same,Span,SSTR2 [3]; [11],104.3
same,Top,SSTR2 [3]; [11],103.3
same,Bottom,SSTR2 [3]; [12],-1.982
same,LogEC50,SSTR2 [3]; [12],-6.696
same,Span,SSTR2 [3]; [12],107.7
same,Top,SSTR2 [3]; [12],105.7
same,Emax,SSTR2 mutants [4],41.3 ± 3%
same,Emax,SSTR2 mutants [5],50.9 ± 2.01%
same,β-arrestin recruitment with GRK2,SSTR2 [6],influenced paltusotine induced β-arrestin recruitment
same,Effect of microswitch mutations,"SSTR2 [7]; CWxP, PIF, DRY and NPxxY motif mutants versus wild-type SSTR2",decreased the potency of β-arrestin recruitment more markedly than the activation ability of Gi signaling
same,Effect of mutants on both signals,SSTR2 [7]; D122(3.32) and Q126(3.36) mutants,markedly affected both β-arrestin and Gi signal
same,Signal bias,"SSTR2 [7]; SSTR2, compared with octreotide",more G protein-biased ligand than octreotide; also recorded: better G-protein-biased agonist of SSTR2 compared with octreotide
